Source: patent US9346761B2, “Arginine methyltransferase inhibitors and uses thereof” (Epizyme, Inc., priority 2013, dated 2016)

Experiments:
[1] = biological target: T1, Full-length human PRMT1 isoform 1 (Homo sapiens, UniProt Q99873); assay: PRMT1 biochemical assay (3H-SAM Flashplate, peptide substrate)
T1 construct: GST-tagged PRMT1; made in house; host or cells: High Five insect cells (baculovirus, pFastBacI)
In short: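 GST-tagged full-length PRMT1 from baculovirus-infected cells, preincubated 30 min at room temperature with compound in 20 mM Bicine pH 7.6, TCEP, BSG, Tween 20. Reaction started with 3H-SAM plus biotinylated peptide, stopped with 300 uM unlabelled SAM. Streptavidin Flashplate capture and scintillation counting; % inhibition curve-fitted for IC50.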

[2] = biological target: T2, Full-length human PRMT8 (Homo sapiens, UniProt Q9NR22); assay: PRMT8 biochemical assay (3H-SAM Flashplate, peptide substrate)
T2 construct: Full-length human PRMT8 (NM_019854.4) isoform 1 transcript clone; made in house
T2 sequence (Q9NR22 whole entry, canonical isoform): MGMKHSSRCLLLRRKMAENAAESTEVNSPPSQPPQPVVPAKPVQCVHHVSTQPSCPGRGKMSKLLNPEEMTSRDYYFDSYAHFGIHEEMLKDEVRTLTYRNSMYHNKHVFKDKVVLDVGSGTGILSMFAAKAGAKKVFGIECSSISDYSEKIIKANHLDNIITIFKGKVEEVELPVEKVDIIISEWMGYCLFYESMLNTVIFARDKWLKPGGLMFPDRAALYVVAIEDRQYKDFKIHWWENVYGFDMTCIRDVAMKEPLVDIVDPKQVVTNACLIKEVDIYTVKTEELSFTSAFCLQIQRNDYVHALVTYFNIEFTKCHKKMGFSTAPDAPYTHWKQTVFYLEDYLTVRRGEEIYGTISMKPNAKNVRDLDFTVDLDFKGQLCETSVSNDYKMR
In short: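 E. coli-expressed PRMT8, GST-cleaved, was preincubated with compound for 30 min at room temperature in 20 mM Bicine pH 7.6, 1 mM TCEP, 0.005% BSG, 0.002% Tween 20. ³H-SAM and biotinylated histone H4 31-45 peptide then started methylation.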

T1 sequence (Q99873 with tags, fused parts or gaps): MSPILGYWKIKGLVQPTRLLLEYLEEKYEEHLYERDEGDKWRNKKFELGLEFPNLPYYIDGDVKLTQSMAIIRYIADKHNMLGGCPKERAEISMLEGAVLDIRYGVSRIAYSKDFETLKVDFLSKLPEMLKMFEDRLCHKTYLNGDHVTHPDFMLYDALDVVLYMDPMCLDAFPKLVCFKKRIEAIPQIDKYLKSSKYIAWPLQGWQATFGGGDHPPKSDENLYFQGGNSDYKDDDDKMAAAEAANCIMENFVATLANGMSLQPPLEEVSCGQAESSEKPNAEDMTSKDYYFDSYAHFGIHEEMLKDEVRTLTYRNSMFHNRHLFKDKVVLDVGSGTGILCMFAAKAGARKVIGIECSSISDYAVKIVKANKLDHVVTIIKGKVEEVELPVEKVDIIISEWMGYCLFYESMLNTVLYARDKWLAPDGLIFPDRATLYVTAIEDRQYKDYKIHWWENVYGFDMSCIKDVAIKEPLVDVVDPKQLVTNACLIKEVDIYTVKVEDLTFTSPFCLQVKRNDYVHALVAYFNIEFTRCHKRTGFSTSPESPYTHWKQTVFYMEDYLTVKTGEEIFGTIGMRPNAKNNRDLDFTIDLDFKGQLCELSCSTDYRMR

Row | SMILES | IC50 [1] | IC50 [2]
1 | CNCCN(C)Cc1c[nH]nc1-c1ccc(F)cc1 [Compound 2, N^1-((3-(4-fluorophenyl)-1H-pyrazol-4-yl)methyl)-N^1,N^2-dimethylethane-1,2-diamine] | < 100 nM | 101 to 1000 nM
2 | CN(CCN)Cc1cn(C)nc1-c1ccc(F)cc1 [Compound 3] | < 100 nM | 101 to 1000 nM
3 | CN(CCN)Cc1cnn(C)c1-c1ccc(F)cc1 [Compound 4] | 101 to 1000 nM | 1010 to 3000 nM
4 | CCN(CCNC)Cc1c[nH]nc1-c1ccc(F)cc1 [Compound 9] | – | 101 to 1000 nM
5 | CNCCN(C)Cc1cnn(C)c1-c1ccc(F)cc1 [Compound 10] | – | 101 to 1000 nM
6 | CNCCN(C)Cc1cn(CC2CCOCC2)nc1-c1ccc(F)cc1 [Compound 11] | – | > 10000 nM
7 | CNCCN(C)Cc1cnn(CC2CCOCC2)c1-c1ccc(F)cc1 [Compound 12] | – | > 10000 nM
8 | CNCCN(C)Cc1c[nH]nc1-c1cccc(N)c1 [Compound 32] | – | 1010 to 3000 nM
9 | CNCCN(C)Cc1c[nH]nc1-c1ccc(CC#N)cc1 [Compound 34] | – | 101 to 1000 nM
10 | CNCCN(C)Cc1c[nH]nc1-c1ccccc1O [Compound 35] | – | > 10000 nM
11 | CNCCN(C)Cc1c[nH]nc1-c1ccccc1Oc1ccccc1 [Compound 36] | – | > 10000 nM
12 | CNCCN(C)Cc1c[nH]nc1-c1cccc(OC(F)(F)F)c1 [Compound 39] | – | 101 to 1000 nM
13 | CNCCN(C)Cc1c[nH]nc1-c1ccccc1NS(C)(=O)=O [Compound 41] | – | > 10000 nM
14 | CNCCN(C)Cc1c[nH]nc1-c1cccc(NC(C)=O)c1 [Compound 42] | – | 1010 to 3000 nM
15 | CNCCN(C)Cc1c[nH]nc1-c1cccc(C(C)=O)c1 [Compound 44] | – | 101 to 1000 nM
16 | CNCCN(C)Cc1c[nH]nc1-c1ccc(C(=O)c2ccccc2)cc1 [Compound 45] | < 100 nM | 101 to 1000 nM
17 | CNCCN(C)Cc1c[nH]nc1-c1ccccc1-c1ccccc1 [Compound 46] | 1010 to 3000 nM | > 10000 nM
18 | CNCCN(C)Cc1c[nH]nc1-c1ccc(-c2ccccc2)cc1 [Compound 47] | – | < 100 nM
19 | CNCCN(C)Cc1c[nH]nc1-c1ccccc1F [Compound 48] | – | 1010 to 3000 nM
20 | CNCCN(C)Cc1c[nH]nc1-c1ccc(F)cc1F [Compound 49] | 101 to 1000 nM | 101 to 1000 nM
21 | CNCCN(C)Cc1c[nH]nc1-c1cc(F)ccc1F [Compound 50] | 101 to 1000 nM | 1010 to 3000 nM
22 | CNCCN(C)Cc1c[nH]nc1-c1ccc(F)c(F)c1 [Compound 51] | < 100 nM | 101 to 1000 nM

Row | SMILES | IC50 [1] | IC50 [2]
23 | CNCCN(C)Cc1c[nH]nc1-c1ccc(OC)c(F)c1 [Compound 52] | < 100 nM | 101 to 1000 nM
24 | CNCCN(C)Cc1c[nH]nc1-c1cc(Cl)ccc1OC [Compound 53] | 3010 to 10000 nM | > 10000 nM
25 | CNCCN(C)Cc1c[nH]nc1-c1cccc(OC)c1OC [Compound 54] | 101 to 1000 nM | 3010 to 10000 nM
26 | CNCCN(C)Cc1c[nH]nc1-c1ccc(OC)cc1OC [Compound 55] | 101 to 1000 nM | 3010 to 10000 nM
27 | CNCCN(C)Cc1c[nH]nc1-c1c(OC)cccc1OC [Compound 56] | 3010 to 10000 nM | > 10000 nM
28 | CNCCN(C)Cc1c[nH]nc1-c1cccc2ccccc12 [Compound 57] | < 100 nM | 101 to 1000 nM
29 | CNCCN(C)Cc1c[nH]nc1-c1ccc2ccccc2c1 [Compound 58] | < 100 nM | 101 to 1000 nM
30 | CNCCN(C)Cc1cn(CCC(O)CO)nc1-c1ccc(F)cc1 (stereo not drawn) [Compound 59] | 3010 to 10000 nM | 3010 to 10000 nM
31 | CCNCCN(C)Cc1c[nH]nc1-c1ccc(F)cc1 [Compound 60] | 101 to 1000 nM | 1010 to 3000 nM
32 | COCCn1cc(CN(C)CCN(C)C)c(-c2ccc(F)cc2)n1 [Compound 61] | > 10000 nM | > 10000 nM
33 | CCN(CCN)Cc1c[nH]nc1-c1ccc(F)cc1 [Compound 62] | < 100 nM | 101 to 1000 nM
34 | CCCN(CCN)Cc1c[nH]nc1-c1ccc(F)cc1 [Compound 63] | 1010 to 3000 nM | 3010 to 10000 nM
35 | COCCn1ncc(CN(C)CCN(C)C)c1-c1ccc(F)cc1 [Compound 64] | > 10000 nM | > 10000 nM
36 | CN(CCN)Cc1cnn(CCO)c1-c1ccc(F)cc1 [Compound 65] | 1010 to 3000 nM | 3010 to 10000 nM
37 | CN(CCN)Cc1cn(CCO)nc1-c1ccc(F)cc1 [Compound 66] | 1010 to 3000 nM | 3010 to 10000 nM
38 | CN(CCN)Cc1c[nH]nc1-c1ccc(C#N)cc1 [Compound 68] | < 100 nM | 101 to 1000 nM
39 | CN(CCN)Cc1n[nH]cc1-c1ccc(F)cc1 [Compound 69] | < 100 nM | 1010 to 3000 nM
40 | CN(CCN)Cc1c[nH]nc1-c1cccc(C#N)c1 [Compound 70] | 101 to 1000 nM | 1010 to 3000 nM
41 | CN(CCN)Cc1c[nH]nc1-c1cccc(F)c1 [Compound 71] | < 100 nM | 101 to 1000 nM
42 | CN(CCN)Cc1c[nH]nc1-c1ccccc1F [Compound 72] | 101 to 1000 nM | 3010 to 10000 nM
43 | CN(CCN)Cc1c[nH]nc1-c1ccccc1 [Compound 73] | 101 to 1000 nM | 101 to 1000 nM
44 | CN(CCN)Cc1c[nH]nc1-c1ccc(C(C)(C)C)cc1 [Compound 74] | < 100 nM | 101 to 1000 nM

Row | SMILES | IC50 [1] | IC50 [2]
45 | CC(C)N(CCN)Cc1c[nH]nc1-c1ccc(F)cc1 [Compound 75] | 101 to 1000 nM | 1010 to 3000 nM
46 | CN(CCN)Cc1cn(CC(O)CO)nc1-c1ccc(F)cc1 (stereo not drawn) [Compound 76] | 3010 to 10000 nM | > 10000 nM
47 | CN(CCN)Cc1cn(C2COC2)nc1-c1ccc(F)cc1 [Compound 77] | 101 to 1000 nM | 1010 to 3000 nM
48 | NCCN(Cc1c[nH]nc1-c1ccc(F)cc1)C1CC1 [Compound 78] | 101 to 1000 nM | 1010 to 3000 nM
49 | CN(CCN)Cc1cn(CC2COC2)nc1-c1ccc(F)cc1 [Compound 79] | > 10000 nM | > 10000 nM
50 | CN(CCN)Cc1cnn(CC2COC2)c1-c1ccc(F)cc1 [Compound 80] | > 10000 nM | > 10000 nM
51 | CN(CCN)Cc1cnn(C2COC2)c1-c1ccc(F)cc1 [Compound 81] | 101 to 1000 nM | 3010 to 10000 nM
52 | CN(CCN)Cc1c[nH]nc1-c1ccc(N2CCNCC2)cc1 [Compound 82] | < 100 nM | 1010 to 3000 nM
53 | CN(CCN)Cc1nn(C)cc1-c1ccc(C#N)cc1 [Compound 83] | < 100 nM | 101 to 1000 nM
54 | CN(CCN)Cc1c(-c2ccc(C#N)cc2)cnn1C [Compound 84] | > 10000 nM | > 10000 nM
55 | CN(CCN)Cc1c[nH]nc1-c1ccc(C(F)(F)F)cc1C(F)(F)F [Compound 85] | 101 to 1000 nM | 3010 to 10000 nM
56 | CN(CCN)Cc1c[nH]nc1-c1ccc(Cl)cc1Cl [Compound 86] | < 100 nM | 101 to 1000 nM
57 | COc1ccc(-c2n[nH]cc2CN(C)CCN)c(OC)c1 [Compound 87] | 101 to 1000 nM | 3010 to 10000 nM
58 | Cc1ccc(-c2n[nH]cc2CN(C)CCN)c(C)c1 [Compound 88] | 101 to 1000 nM | 1010 to 3000 nM
59 | CN(CCN)Cc1c[nH]nc1-c1ccc(F)cc1Cl [Compound 89] | < 100 nM | 1010 to 3000 nM
60 | Cc1ccc(-c2n[nH]cc2CN(C)CCN)c(Cl)c1 [Compound 90] | < 100 nM | 1010 to 3000 nM
61 | Cc1ccc(Cl)c(-c2n[nH]cc2CN(C)CCN)c1 [Compound 91] | 101 to 1000 nM | 3010 to 10000 nM
62 | CN(CCN)Cc1c[nH]nc1-c1ccc(C(F)(F)F)cc1 [Compound 92] | < 100 nM | 101 to 1000 nM
63 | CN(CCN)Cc1c[nH]nc1-c1ccc(OC(F)(F)F)cc1 [Compound 93] | < 100 nM | < 100 nM
64 | CN(CCN)Cc1c[nH]nc1-c1ccc(OC(F)F)cc1 [Compound 94] | < 100 nM | 101 to 1000 nM
